Data on five compounds can be found in paper PMC3500847 (ChemMedChem, 2012).

One may read the MIC as the lowest concentration found to suppress growth. Higher therefore signals weaker potency.

Bridge positions count the residues as written; N and C are the ends. Square brackets hold non-standard residues; d marks the D form. Peptide text beside a SMILES is read from it. d(aThr) = C[C@@H](O)[C@@H](N)C(=O)O; 12Ado = NCCCCCCCCCCCC(=O)O

In data set [1] the test system is S. aureus ATCC 700699 (Mu50, VRSA). Type of data set: cell-based, Staphylococcus aureus.
The subject of data set [2] is S. aureus ATCC 33591 (MRSA). Type of data set: cell-based, Staphylococcus aureus.
Data set [3] has as its system variety of fungi, including Candida albicans and Cryptococcus neoformans, and Gram-positive bacteria such as S. aureus. The note with it: range over fungi and Gram-positive bacteria; cited from earlier work.
The test system of data set [4] is human liver embryonic cell line WRL 68. It is filed as cell-based.
The next data set has as its system HepG2 cancer cell line. It is filed as cell-based, human.

As for `CC(C)[C@@H]1NC(=O)[C@@H](C(C)C)NC(=O)[C@@H](NC(=O)CCCCCCCCCCCN)[C@@H](C)OC(=O)[C@@H](C)NC(=O)[C@@H](CC(N)=O)NC(=O)[C@@H]([C@H](C)O)NC1=O` [compound 3] (H-[12Ado]T[dV]V[dT][dN][dA]; ester 2-C), the MIC in data set [1] and in data set [2] was above 128 µg/mL each time.
Regarding `CC(=O)N[C@@H]1C(=O)N[C@H](C(C)C)C(=O)N[C@@H](C(C)C)C(=O)N[C@H]([C@@H](C)O)C(=O)N[C@H](CC(N)=O)C(=O)N[C@H](C)C(=O)O[C@@H]1C` [compound 2] (Ac-T[dV]V[d(aThr)][dN][dA]; ester 1-C), the MIC in data set [1] and in data set [2] was above 128 µg/mL each time.
Take `CC(C)[C@@H]1NC(=O)[C@@H](C(C)C)NC(=O)[C@@H](NC(=O)CCCCCCCCCCCN)[C@@H](C)OC(=O)[C@@H](C)NC(=O)[C@@H](CC(N)=O)NC(=O)[C@@H]([C@@H](C)O)NC1=O` [compound 4] (H-[12Ado]T[dV]V[d(aThr)][dN][dA]; ester 2-C): the minimum inhibitory concentration (MIC) in data set [1] and in data set [2] was above 128 µg/mL each time.
Take fusaricidin A: the MICs in data set [3] was 0.78 to 3.12 µg/mL.
For `CC(=O)N[C@@H]1C(=O)N[C@H](C(C)C)C(=O)N[C@@H](C(C)C)C(=O)N[C@H]([C@H](C)O)C(=O)N[C@H](CC(N)=O)C(=O)N[C@H](C)C(=O)O[C@@H]1C` [compound 1] (Ac-T[dV]V[dT][dN][dA]; ester 1-C), the MIC in data set [1] and in data set [2] was above 128 µg/mL throughout. Also, the “cytotoxicity” value (in data set [4]; with HepG2 cancer cell line) was “did not show appreciable cytotoxicity” in each case.
